Results from PMC11762167, “G Protein-Coupled Receptor 17 Inhibits Glucagon-like Peptide-1 Secretion via a Gi/o-Dependent Mechanism in Enteroendocrine Cells” (Biomolecules, 2024).

Target: hGPR17L (Homo sapiens, UniProt Q13304)
Assay: Calcium mobilization in HEK293 cells transfected with hGPR17L
Type: cell-based
Method: HEK293 cells were maintained and transfected as previously described.
Calcium flux in HEK293 cells was measured as previously described.

Chain of hGPR17L (Q13304 whole entry): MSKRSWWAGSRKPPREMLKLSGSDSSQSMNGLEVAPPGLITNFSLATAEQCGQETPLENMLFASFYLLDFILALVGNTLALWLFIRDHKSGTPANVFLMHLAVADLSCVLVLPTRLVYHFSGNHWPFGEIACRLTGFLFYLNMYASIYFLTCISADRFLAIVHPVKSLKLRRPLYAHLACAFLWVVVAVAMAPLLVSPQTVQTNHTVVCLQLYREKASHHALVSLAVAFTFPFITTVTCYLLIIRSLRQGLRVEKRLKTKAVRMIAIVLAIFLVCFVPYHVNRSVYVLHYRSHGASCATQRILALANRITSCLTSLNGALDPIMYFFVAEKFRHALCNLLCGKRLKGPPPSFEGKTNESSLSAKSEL

With `O=C(O)CCc1c(C(=O)O)[nH]c2cc(Cl)cc(Cl)c12` [MDL29,951] the “Calcium Emax (Mean Peak ΔF/F)” value was 1.92±0.22, the “Calcium Potency (pEC50)” value was 7.29±0.11 and the EC50 (read-out: Calcium Potency EC50) was 51 nM.
